According to patent US12152011B2, “Usnic acid derivative having TSLP secretion inhibitory ability and use thereof” (SEOUL NATIONAL UNIVERSITY HOSPITAL, priority 2018, dated 2024):

Experiments:
TSLP gene = assay: qRT-PCR of TSLP gene expression in TNF-a stimulated HaCaT cells; assay type: cell-based, human; conditions: TNF-a stimulation, UA-CA treatment, FIG. 2
IL-1β gene = assay: qRT-PCR of IL-1β gene expression in TNF-a stimulated HaCaT cells; assay type: cell-based, human; conditions: TNF-a stimulation, UA-CA treatment, FIG. 3
IL-13 gene = assay: qRT-PCR of IL-13 gene expression in TNF-a stimulated HaCaT cells; assay type: cell-based, human; conditions: TNF-a stimulation, UA-CA treatment, FIG. 4
IL-25 gene = assay: qRT-PCR of IL-25 gene expression in TNF-a stimulated HaCaT cells; assay type: cell-based, human; conditions: TNF-a stimulation, UA-CA treatment, FIG. 5
IL-31 gene = assay: qRT-PCR of IL-31 gene expression in TNF-a stimulated HaCaT cells; assay type: cell-based, human; conditions: TNF-a stimulation, UA-CA treatment, FIG. 6
hypertrophic scar = assay: Scar alleviation in rabbit ear hypertrophic scar model (biopsy, H&E histology); assay type: in vivo
Protocol: In order to confirm the efficacy of Usnic acid derivatives in relieving hypertrophic scars, the degree of scar relief by UA-CA treatment in hypertrophic scar samples was confirmed through histological comparison and pathological examination of skin tissue after biopsy.
A total of 4 rabbits weighing 3.5 kg (N2W conventional, female, 30 weeks old) were reared for a week in an environment of 21±1° C. 12-hour light/dark cycle, and the experiment was carried out. After anesthesia by intravenous administration of ketamine (60 mg/kg)+xylazine (5 mg/kg), both ears of the rabbit were sufficiently sterilized with betadine, and 5 wounds each with a diameter of 6 mm were made with a biopsy punch and a neck collar was applied. Management and supervision were made to become a hypertrophic scar model for 2 weeks after wound surgery. After confirming the hypertrophic scar model, the test material was treated twice a week for 2 weeks (untreated hypertrophic scar sample (Control), hypertrophic scar sample treated with 1, 5, and 10 mM UA-CA, 100 Thickening scar samples treated with ug/ml tranilast). After 2 weeks, visual evaluation and biopsy of the wound area were performed, followed by H&E staining, and then the changes in epidermal thickness were compared at 200 times and 400 times under a microscope.

C=C(OC(=O)/C=C/c1ccccc1)C1=C(OC(=O)/C=C/c2ccccc2)C=C2Oc3c(C(C)=O)c(O)c(C)c(O)c3[C@@]2(C)C1=O [UA-CA]
expression level of the TSLP gene (mRNA, relative to 36B4) (TSLP gene): dependently decreased | expression level of the IL-1β gene (mRNA, relative to 36B4) (IL-1β gene): dependently decreased | expression level of the IL-13 gene (mRNA, relative to 36B4) (IL-13 gene): dependently decreased | expression level of the IL-25 gene (mRNA, relative to 36B4) (IL-25 gene): dependently decreased | expression level of the IL-31 gene (mRNA, relative to 36B4) (IL-31 gene): dependently decreased | scar relief compared with positive control tranilast (hypertrophic scar; 10 mM UA-CA vs 100 ug/ml tranilast, twice a week for 2 weeks): better scar relief efficacy | scar relief compared to the untreated hypertrophic scar (hypertrophic scar; UA-CA 1, 5, 10 mM, twice a week for 2 weeks, FIGS. 7A-7E): scar relief was more advanced | thickness of the epidermis compared to the untreated thickening scar (hypertrophic scar; UA-CA-treated sample, H&E staining, FIGS. 8A-8E): became thinner
